Literature values in publication PMC6494845 (Scientific Reports, 2019).

Legend:
[1] = design: method as in PMID 17004725; settings: normal mice; cited from earlier work
Aβ aggregates = tested on: Aβ aggregates; design: method as in PMID 17004725; settings: compared with curcumin; cited from earlier work
HIV-1 protease = tested on: HIV-1 protease; design: method as in PMID 8087563; settings: cited from earlier work
[2] = design: method as in PMID 9278892; settings: cell culture medium containing 10% fetal calf serum and human blood, at 1 h; cited from earlier work
[3] = design: method as in PMID 19807070; settings: in methanol; cited from earlier work

COc1cc(/C=C/C(=O)CC(=O)/C=C/c2ccc(OCCC[18F])c(OC)c2)ccc1O [4′-O-[^18F]fluoropropylcurcumin]
brain permeability [1]: poor brain permeability

COc1cc(/C=C/C(=O)CC(=O)/C=C/c2ccc(OCCCF)c(OC)c2)ccc1O [4′-O-fluoropropylcurcumin]
in vitro binding affinity for Aβ aggregates (Aβ aggregates): much higher than that of curcumin

curcumin
IC50 (HIV-1 protease): 100 µM
stability (% remaining) [2]: > 80%
emission [3]: 560 nm
excitation [3]: 510 nm
